Data taken from PubChem BioAssay AID194 (DTP/NCI, 2004).
“And” between values parts separate entries of the source, which are not always exact repeats. Equal entries are not always repeated. Inconclusive results are not listed.

System: BDF1 mice, B16 melanoma s.c., survival/tumor T/C
Assay: NCI In Vivo Anticancer Drug Screen. Data for tumor model B16 Melanoma (subcutaneous) in B6D2F1 (BDF1) mice
Experimental: The antitumor activity of compounds was measured in mice bearing transplantable tumors. Survival or tumor size were measured and the results are expressed as the measurement made in the treated group (T) divided by the measurement made in the vehicle treated control group (C). The tumor model used in this assay is B16 Melanoma (subcutaneous) in B6D2F1 (BDF1) mice

[1] = endpoint: median survival time, dose: 0.5 mg/kg/injection, schedule: Q01DX009 (ip), vehicle: saline with Tween-80, higher = longer survival
[2] = endpoint: median survival time, dose: 1.0 mg/kg/injection, schedule: Q01DX009 (ip), vehicle: saline with Tween-80, higher = longer survival
[3] = endpoint: median survival time, dose: 25.0 mg/kg/injection, schedule: Q01DX009 (ip), vehicle: saline with Tween-80, higher = longer survival
[4] = endpoint: median survival time, dose: 50.0 mg/kg/injection, schedule: Q01DX009 (ip), vehicle: saline with Tween-80, higher = longer survival
[5] = endpoint: median survival time, dose: 100.0 mg/kg/injection, schedule: Q01DX009 (ip), vehicle: saline with Tween-80, higher = longer survival

COc1cccc2c1C(=O)c1c(O)c3c(c(O)c1C2=O)C[C@@](O)(C(=O)COC(=O)Cc1ccccc1)C[C@@H]3OC1CC(N)C(O)C(C)O1 (stereo partly drawn)
T/C [1]: 86 % of control
T/C [2]: 88 % of control
T/C (endpoint: median survival time, dose: 2.0 mg/kg/injection, schedule: Q01DX009 (ip), vehicle: saline with Tween-80, higher = longer survival): 94 % of control

CCCCS(=O)CC(CO)NC(=O)/C=C/c1c(C)[nH]c(=O)[nH]c1=O (stereo not drawn)
T/C (endpoint: median survival time, dose: 1.25 mg/kg/injection, schedule: Q01DX009 (ip), vehicle: water, higher = longer survival): 100 % of control
T/C (endpoint: median survival time, dose: 5.0 mg/kg/injection, schedule: Q01DX009 (ip), vehicle: water, higher = longer survival): 100 % of control
T/C (endpoint: median survival time, dose: 10.0 mg/kg/injection, schedule: Q01DX009 (ip), vehicle: water, higher = longer survival): 116 % of control

Nc1ncnc2c1ncn2C1OC(CO)C(O)C1O (stereo not drawn)
T/C (endpoint: median survival time, dose: 60.0 mg/kg/injection, schedule: Q03HX024 (ip), vehicle: saline with Tween-80, higher = longer survival): 115 % of control
T/C (endpoint: median survival time, dose: 70.0 mg/kg/injection, schedule: Q03HX024 (ip), vehicle: saline with Tween-80, higher = longer survival): 96 % of control
T/C (endpoint: median survival time, dose: 80.0 mg/kg/injection, schedule: Q03HX024 (ip), vehicle: saline with Tween-80, higher = longer survival): 105 % of control
T/C (endpoint: median survival time, dose: 160.0 mg/kg/injection, schedule: Q03HX024 (ip), vehicle: saline with Tween-80, higher = longer survival): 115 % of control
T/C (endpoint: median survival time, dose: 240.0 mg/kg/injection, schedule: Q03HX024 (ip), vehicle: saline with Tween-80, higher = longer survival): 121 % of control

Cn1c(=O)[nH]c2nncnc2c1=O
T/C (endpoint: median survival time, dose: 0.2 mg/kg/injection, schedule: Q01DX009 (ip), vehicle: water, higher = longer survival): 103 % of control
T/C (endpoint: median survival time, dose: 0.4 mg/kg/injection, schedule: Q01DX009 (ip), vehicle: water, higher = longer survival): 119 % of control
T/C (endpoint: median survival time, dose: 0.8 mg/kg/injection, schedule: Q01DX009 (ip), vehicle: water, higher = longer survival): 99 % of control
T/C (endpoint: median survival time, dose: 3.12 mg/kg/injection, schedule: Q01DX009 (ip), vehicle: water, higher = longer survival): 98 % of control and 103 % of control
T/C (endpoint: median survival time, dose: 6.25 mg/kg/injection, schedule: Q01DX009 (ip), vehicle: water, higher = longer survival): 117 % of control
T/C (endpoint: median survival time, dose: 12.5 mg/kg/injection, schedule: Q01DX009 (ip), vehicle: water, higher = longer survival): 96 % of control and 99 % of control
T/C (endpoint: median survival time, dose: 25.0 mg/kg/injection, schedule: Q01DX009 (ip), vehicle: water, higher = longer survival): 114 % of control

CCCCCCCC(=O)OCC(=O)[C@]1(O)Cc2c(O)c3c(c(O)c2[C@@H](OC2CC(N)C(O)C(C)O2)C1)C(=O)c1c(OC)cccc1C3=O (stereo partly drawn)
T/C [1]: 98 % of control
T/C [2]: 109 % of control

O=C(O)CCNSc1ccccc1[N+](=O)[O-]
T/C (endpoint: median survival time, dose: 12.5 mg/kg/injection, schedule: Q01DX009 (ip), vehicle: saline with Tween-80, higher = longer survival): 105 % of control
T/C [3]: 109 % of control
T/C [4]: 114 % of control
T/C [5]: 100 % of control

N=c1ccn2c(n1)OC1C(O)C(CO)OC12 (stereo not drawn)
T/C (endpoint: median survival time, dose: 37.5 mg/kg/injection, schedule: Q01DX009 (ip), vehicle: saline, higher = longer survival): 95 % of control
T/C (endpoint: median survival time, dose: 75.0 mg/kg/injection, schedule: Q01DX009 (ip), vehicle: saline, higher = longer survival): 100 % of control
T/C (endpoint: median survival time, dose: 150.0 mg/kg/injection, schedule: Q01DX009 (ip), vehicle: saline, higher = longer survival): 101 % of control

S=c1nc[nH]c2nc[nH]c12
T/C (endpoint: median survival time, dose: 12.5 mg/kg/injection, schedule: Q01DX009 (ip), vehicle: Klucel (hydroxypropylcellulose) (HPC), higher = longer survival): 103 % of control and 118 % of control
T/C [3]: 100 % of control
T/C [4]: 100 % of control
T/C [5]: 93 % of control
T/C (endpoint: median tumor weight (est.), dose: 25.0 mg/kg/injection, schedule: Q01DX009 (ip), vehicle: saline with Tween-80, higher = larger tumour): 103 % of control
T/C (endpoint: median tumor weight (est.), dose: 50.0 mg/kg/injection, schedule: Q01DX009 (ip), vehicle: saline with Tween-80, higher = larger tumour): 91 % of control

CC[C@](O)(C(=O)O)c1cc2n(c(=O)c1CO)Cc1cc3ccccc3nc1-2
T/C (endpoint: median survival time, dose: 0.25 mg/kg/injection, schedule: Q01DX009 (ip), vehicle: saline, higher = longer survival): 102 % of control
T/C (endpoint: median survival time, dose: 0.5 mg/kg/injection, schedule: Q01DX009 (ip), vehicle: saline, higher = longer survival): 102 % of control
T/C (endpoint: median survival time, dose: 1.0 mg/kg/injection, schedule: Q01DX009 (ip), vehicle: Klucel (hydroxypropylcellulose) (HPC), higher = longer survival): 104 % of control
T/C (endpoint: median survival time, dose: 2.0 mg/kg/injection, schedule: Q01DX009 (ip), vehicle: Klucel (hydroxypropylcellulose) (HPC), higher = longer survival): 104 % of control
T/C (endpoint: median survival time, dose: 2.0 mg/kg/injection, schedule: Q01DX009 (ip), vehicle: saline, higher = longer survival): 98 % of control
